Results: PubChem BioAssay (NCI)
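These data come from cells grown in 96-well plates and exposed to compound for 48 hours at five concentrations. At the GI50, growth is halved. Definition used: TGI = concentration required for complete inhibition of growth.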

Assays:
Experiment in all cases: NCI-60 cell line screen, 48 h
OVCAR-5 ovarian = tested on: OVCAR-5 ovarian
RXF 393 renal = tested on: RXF 393 renal
SF-268 CNS = tested on: SF-268 CNS
SF-539 CNS = tested on: SF-539 CNS
MALME-3M melanoma = tested on: MALME-3M melanoma
SW-620 colon = tested on: SW-620 colon
CCRF-CEM leukemia = tested on: CCRF-CEM leukemia
LOX IMVI melanoma = tested on: LOX IMVI melanoma
A498 renal = tested on: A498 renal
OVCAR-4 ovarian = tested on: OVCAR-4 ovarian

Row | SMILES | GI50 (OVCAR-5 ovarian) [µM] | TGI (OVCAR-5 ovarian) [µM] | GI50 (RXF 393 renal) [µM] | TGI (RXF 393 renal) [µM] | GI50 (SF-268 CNS) [µM] | TGI (SF-268 CNS) [µM] | GI50 (SF-539 CNS) [µM] | TGI (SF-539 CNS) [µM] | GI50 (MALME-3M melanoma) [µM] | TGI (MALME-3M melanoma) [µM] | GI50 (SW-620 colon) [µM] | TGI (SW-620 colon) [µM] | GI50 (CCRF-CEM leukemia) [µM] | TGI (CCRF-CEM leukemia) [µM] | GI50 (LOX IMVI melanoma) [µM] | TGI (LOX IMVI melanoma) [µM] | GI50 (A498 renal) [µM] | TGI (A498 renal) [µM] | GI50 (OVCAR-4 ovarian) [µM] | TGI (OVCAR-4 ovarian) [µM]
1 | COc1ccc(Nn2c(SCC(=O)Nc3nc(-c4ccc(Cl)cc4)cs3)nc(C)c2C)cc1 | > 100 | > 100 | 3.53 | 9.64 | 2.81 | > 100 | 4.15 | > 100 | 2.9 | > 100 | 4.78 | > 100 | 3.82 | > 100 | 3.02 | 44.2 | 2.22 | 56.5 | 4.02 | > 100
2 | C=C(C)[C@@H]1CC[C@]2(C)[C@H](C(=O)C=C3[C@@H]4C[C@](C)(C(=O)N5CCN(C)CC5)CC[C@]4(C)CC[C@]32C)[C@@]1(C)CCC#N | 7.01 | 13.6 | 5.32 | 11.4 | 7.26 | 15.2 | 6.3 | 12.7 | 3.94 | 10.6 | 6.99 | 14.9 | 6.62 | 16.3 | 6.24 | 12.6 | 7.77 | 14.9 | 6.21 | 13.6
3 | C/C(=N\NC(=O)c1ccncc1)c1ccc2ccccc2c1O | – | > 100 | – | > 79.6 | – | 40.8 | – | 23.2 | – | 43.2 | – | > 100 | – | > 100 | – | > 100 | – | 53.3 | – | > 65.2
4 | CC(=O)OC1CC(n2cc(F)c(=O)[nH]c2=O)OC1CO (stereo not given) | – | > 100 | – | > 100 | – | > 73.8 | – | 5.02 | – | > 100 | – | > 86.8 | – | > 100 | – | > 63.8 | – | 15.5 | – | > 100
5 | COc1ccc(NC(=O)n2nc(N)c3ccccc32)cc1OC | 45.5 | > 100 | 95.2 | > 100 | 49.6 | > 100 | 95.9 | > 100 | > 100 | > 100 | > 100 | > 100 | 36.7 | > 100 | 49.3 | > 100 | 30.3 | 85.4 | 63.2 | > 100
6 | C1CCN(CCC2CCCCN2)CC1 (stereo not given) | – | > 100 | – | > 100 | – | > 100 | – | > 100 | – | > 100 | – | > 100 | – | > 100 | – | > 100 | – | > 100 | – | > 100
7 | CCOC(=O)c1sc2nc3sc(N=Nc4ccc(Cl)cc4)c(O)n3c(=S)c2c1C | 36.9 | > 100 | 20.6 | 90.4 | 19.7 | 82 | 25.1 | 50.5 | 34.9 | 95 | 35.4 | > 100 | 32.2 | > 100 | 26.1 | 87.1 | 24.1 | 62.5 | 47.4 | > 100
8 | COc1ccc(C2=NNC(=O)OC2c2ccccc2)cc1 (stereo not given) | – | > 100 | – | > 100 | – | > 100 | – | > 100 | – | > 100 | – | > 100 | – | > 100 | – | > 100 | – | > 100 | – | > 100
9 | CCn1c2c(n(CC)c1=S)-c1c(n(CC)c(=S)n1CC)SSSS2 | – | 27.8 | – | 7.55 | – | 44.4 | – | 28.2 | – | 9.08 | – | 3.29 | – | 9.42 | – | 23.2 | – | 63.8 | – | 20.1
10 | CN(C)c1ccc(/C=C(/NC(=O)c2ccccc2)c2nc3ccc(Cl)cc3[nH]2)cc1 | – | 97.5 | – | > 93.9 | – | > 100 | – | > 100 | – | > 82.9 | – | > 60.5 | – | > 84 | – | > 70.6 | – | > 100 | – | > 100
11 | CC(=O)C1CC=C(C)CC1 (stereo not given) | – | > 100 | – | > 100 | – | > 100 | – | > 100 | – | > 100 | – | > 100 | – | > 100 | – | > 100 | – | > 100 | – | > 100
12 | O=[N+]([O-])c1ccc(-c2nc(-c3ccccc3)c(-c3ccccc3)n2-c2ccccc2)cc1 | 4.7 | 28.7 | 3.08 | 9.78 | 3.7 | 17.6 | 2.02 | 4.78 | 2.78 | 8.58 | 2.6 | 9.28 | 2.83 | > 23.8 | 2.4 | 6.86 | 2.81 | 9.12 | 2.94 | 14.9
13 | N#Cc1c(-c2ccc(Cl)cc2)n(O)c2ccccc12 | 4.08 | > 100 | 1.8 | 5.84 | 2.6 | 25.5 | 2.58 | 9.83 | 1.88 | 9.02 | 0.996 | 13.2 | 3.37 | 23.2 | 2.24 | 13.4 | 1.38 | 4.09 | 3.01 | > 100
14 | O=C1OCC(c2cccs2)=C1Cl | 76.7 | > 100 | 53 | > 100 | > 100 | > 100 | 23.2 | 86 | > 100 | > 100 | > 100 | > 100 | 84.1 | > 100 | 89.5 | > 100 | 17.6 | 63.9 | 73.8 | > 100
15 | CC(C)[C@@]12C[C@@H](OC(=O)[C@H]3CO3)[C@@](C)(O1)[C@@H]1CC[C@@H](C)[C@H]1[C@@H]2OC(=O)/C=C/c1ccccc1 | 20.5 | 68 | 1.3 | 17.8 | 0.777 | > 81.2 | 17.5 | 43.3 | 13.9 | 30 | 29.9 | > 100 | 18 | > 84.7 | 12.6 | 46.3 | 0.217 | 0.684 | 11.5 | 30.2
